Legend:
wheat = test: Test F pre-/postemergence herbicide test; format: in vivo, Triticum aestivum
Text: Seeds of plant species selected from annual blugrass (Poa annua L.), blackgrass (Alopecurus myosuroides Huds.), catchweed bedstraw (Gallium aparine L.), common chickweed (Stellaria media (L.) Vill./Cyr.), downy bromegrass (Bromus tectorum L.), green foxtail (Setaria viridis (L.) Beauv.), Italian ryegrass (Lolium multiflorum Lam.), kochia (Kochia scoparia (L.). Schrad.), lambsquarters (Chenopodium album L.), littleseed canarygrass (Phalaris minor Retz.), pigweed (Amaranthus retroflexus L.), Russian thistle (Salsola kali L. ssp. Ruthenica (Iljin) Soo), wild buckwheat (Polygonum convolvulus L.), wild mustard (Sinapis arvensis L.), wild oat (Avena fatua L.), windgrass (Apera spica-venti (L.) Beauv.), winter barley (Hordeum vulgare L.), and wheat (Triticum aestivum L.) were planted and treated preemergence with test chemicals formulated in a non-phytotoxic solvent mixture which included a surfactant.
At the same time, plants selected from these crop and weed species were treated with postemergence applications of some of the test chemicals formulated in the same manner. Plants ranged in height from 2 to 18 cm (1- to 4-leaf stage) for postemergence treatments. Treated plants and controls were maintained in a greenhouse for 12 to 14 days, after which time all species were compared to controls and visually evaluated. Plant response ratings, summarized in Table F, are based on a scale of 0 to 100 where 0 is no effect and 100 is complete control. A dash (-) response means no test result.

[1] = test system: corn (maize) cv. Pioneer 33G26; test: Test G safening on corn by naphthalic anhydride seed treatment, preemergence; format: in vivo, Zea mays
Text: This test evaluated the safening of compounds of the invention on corn (maize; Zea mays L.) cv. ‘Pioneer 33G26’ by seed treatment with naphthalic anhydride (1,8-naphthalic anhydride). All corn seed had been first treated with fludioxonil and metaxyl applied at the manufacturer's recommended rate as per the Pioneer 33G26 label. Some of the corn seed were subsequently also treated with naphthalic anhydride as a 1% by weight seed dressing. The corn seed were planted in pots containing pasteurized Sassafras sandy loam soil, and then treatments were applied preemergence the same day. Treatments were applied by spraying the test compounds formulated in a non-phytotoxic solvent mixture, using a flat fan nozzle and a spray volume of 280 L/ha. The treatments were triply replicated and the results subsequently averaged. The pots were placed on a greenhouse bench using a complete randomized block design except for the first replicate, which was unrandomized. The plants were grown in the greenhouse and watered as needed with a dilute nutrient solution containing 200 ppm of N. Illumination was daylight supplemented by artificial sources to maintaining a photoperiod of 16 hours. The temperature was maintained at 28±2° C. during the day and 23±2° C. at night. The plant response was visually rated 25 days after treatment in comparison to untreated controls using a scale of 0 to 100, with 0 representing no effect and 100 representing complete plant death.

barnyardgrass (ECHCG) = test: Test J Compounds 2 and 6 alone and in combination with other herbicides, foliage spray; format: in vivo, Echinochloa crus-galli; design: key to ECHCG Obsd.: percentage herbicidal effect (observed); conditions: for ECHCG Obsd.: applied alone
Text: Colby's Equation was used to calculate the expected additive herbicidal effect of the mixtures of Compound 6 with Harmony® Extra (i.e. a 2:1 mixture by weight of thifensulfuron-methyl and tribenuron-methyl). Colby's Equation (Colby, S. R. “Calculating Synergistic and Antagonistic Responses of Herbicide Combinations,” Weeds, 15(1), pp 20-22 (1967)) calculates the expected additive effect of herbicidal mixtures, and for two active ingredients is of the form: Pa+b=Pa+Pb−(PaPb/100) wherein • Pa+b is the percentage effect of the mixture expected from additive contribution of the individual components, • Pa is the observed percentage effect of the first active ingredient at the same use rate as in the mixture, and • Pb is the observed percentage effect of the second active ingredient at the same use rate as in the mixture.
(§1) Seeds of test plants consisting of barnyardgrass (ECHCG; Echinochloa crus-galli (L.) Beauv.), blackgrass (ALOMY; Alopecurus myosuroides Huds.), Surinam grass (BRADC; Urochloa decumbens (Staph) R. D. Webster, previously named Brachiaria decumbens Stapf), cocklebur (XANST, Xanthium strumarium L.), corn (ZEAMD, Zea mays L. cv. ‘Pioneer 33G26’), large crabgrass (DIGSA, Digitaria sanguinalis (L.) Scop.), giant foxtail (SETFA, Setaria faberi Herrm.), lambsquarters (CHEAL, Chenopodium album L.), morningglory (IPOCO, Ipomoea coccinea L.), pigweed (AMARE, Amaranthus retroflexus L.), velvetleaf (ABUTH, Abutilon theophrasti Medik.) wheat (TRZAS, Triticum aestivum L. cv. ‘Recital’) and wild oat (AVEFA, Avena fatua L.) were planted in Redi-Earth® planting medium (Scotts Company, 14111 Scottslawn Road, Marysville, Ohio 43041) comprising spaghnum peat moss and vermiculite. Seeds of small-seeded species were planted about 1 cm deep; larger seeds were planted about 2.5 cm deep. Plants were grown in a greenhouse using supplemental lighting to maintain a photoperiod of about 14 hours; daytime and nighttime temperatures were about 24-30° C. and 22-25° C., respectively. […] Also listed in Table J are the expected effects for the mixtures calculated using Colby's Equation.

cocklebur (XANST) = test: as above; format: in vivo, Xanthium strumarium; design: key: 0 = no effect, 100 = complete control; conditions: applied alone
Text: as §1, with “respectively. Balanced fertilizer was applied through the watering system.” for “respectively.”

corn (ZEAMD) = test: as above; format: in vivo, Zea mays; design: key: percentage herbicidal effect (observed); conditions: applied alone
Text: Colby's Equation was used to calculate the expected additive herbicidal effect of the mixtures of Compound 6 with Harmony® Extra (i.e. a 2:1 mixture by weight of thifensulfuron-methyl and tribenuron-methyl). […]
as §1, with “vermiculite.” for “vermiculite. Seeds of small-seeded species were planted about 1 cm deep; larger seeds were planted about 2.5 cm deep. Plants were grown in a greenhouse using supplemental lighting to maintain a photoperiod of about 14 hours; daytime and nighttime temperatures were about 24-30° C. and 22-25° C., respectively.”

CCn1nc(C(C)(C)C)cc1C(=O)Nc1cc(C(=O)OC(C)C)c(F)cc1F [Compound 248]
Plant response rating (0-100), Wheat (wheat; Postemergence, 31 g ai/ha): 0
Plant response rating (0-100), Wheat (wheat; Postemergence, 62 g ai/ha): 5
Plant response rating (0-100), Wheat (wheat; Postemergence, 125 g ai/ha): 5
Plant response rating (0-100), Wheat (wheat; Postemergence, 250 g ai/ha): 20
Plant response rating (0-100), Wheat (wheat; Preemergence, 31 g ai/ha): 0
Plant response rating (0-100), Wheat (wheat; Preemergence, 62 g ai/ha): 0
Plant response rating (0-100), Wheat (wheat; Preemergence, 125 g ai/ha): 0
Plant response rating (0-100), Wheat (wheat; Preemergence, 250 g ai/ha): 10

CCn1nc(C(C)(C)C)cc1C(=O)Nc1cc(C(=O)N(C)C)ccc1F [Compound 6, N-[5-[(dimethylamino)carbonyl]-2-fluorophenyl]-3-(1,1-dimethylethyl)-1-ethyl-1H-pyrazole-5-carboxamide]
Response of corn, With 1% naphthalic anhydride seed treatment ([1]; 62 g a.i./ha): 60
Response of corn, Without naphthalic anhydride seed treatment ([1]; 62 g a.i./ha): 65
Response of corn, With 1% naphthalic anhydride seed treatment ([1]; 125 g a.i./ha): 62
Response of corn, Without naphthalic anhydride seed treatment ([1]; 125 g a.i./ha): 68
Response of corn, With 1% naphthalic anhydride seed treatment ([1]; 250 g a.i./ha): 78
Response of corn, Without naphthalic anhydride seed treatment ([1]; 250 g a.i./ha): 88
Response of corn, With 1% naphthalic anhydride seed treatment ([1]; 500 g a.i./ha): 70
Response of corn, Without naphthalic anhydride seed treatment ([1]; 500 g a.i./ha): 92
ECHCG Obsd. (barnyardgrass (ECHCG); 62 g a.i./ha): 17
ECHCG Obsd. (barnyardgrass (ECHCG); 125 g a.i./ha): 63
observed effect of mixture compared with additive effect expected from Colby's Equation (barnyardgrass (ECHCG); mixture with terbacil, barnyardgrass, foliage spray, 15 days after treatment): greater than additive
XANST Obsd. (cocklebur (XANST); 62 g a.i./ha): 67
XANST Obsd. (cocklebur (XANST); 125 g a.i./ha): 63
ZEAMD Obsd. (corn (ZEAMD); 62 g a.i./ha): 22
ZEAMD Obsd. (corn (ZEAMD); 125 g a.i./ha): 28
